Laboratory results taken from US10689342B2, “Aza-tanshinone derivatives, process for their preparation and their use in therapy” (UNIVERSITA' DEGLI STUDI DI MILANO, priority 2016, dated 2020).
One block for each compound: values may come before it.

Key:
MDA-MB-231 cells = test: xCELLigence trans-well migration assay; format: cell-based; conditions: MDA-MB-231, THP1-conditioned medium
From the text: Migration assays have been carried out by using the xCELLigence RTCA DP Instrument (Roche) by seeding 5,000 cells/well at t0 in CIM-Plates-16 (Roche), using the 1% FBS medium (THP1 conditions) in the lower chamber and MDA-MB-231 cells seeded in the same way in the upper chamber. The ability of the MDA-MB-231 cells to migrate depends also on the presence of cytokines regulated by HuR in the surrounding environment.

MDA-MB-231 [1] = test: Scratch assay; format: cell-based; conditions: 24 hours (DMSO 35 ± 1.92)
Protocol: (§1) Scratch assays have been carried out on 6-well plates and, after treatment for 24 hours with aza-tanshinone 26, the empty area of the scratched wells has been calculated by using the ImageJ software. The experiments have been carried out in duplicate.

PANC1 = test: Scratch assay; format: cell-based; conditions: 24 hours
Protocol: as §1

SW-480 = test: alamar Blue viability assay; format: cell-based
Protocol: (§2) Tumor cell lines of metastatic breast cancer (MDA-MB-231), breast cancer (MCF7), human monocytic leukemia (THP-1) and pancreatic carcinoma (PANC-1) have been cultured in a complete DMEM or RPMI 1640 (Gibco Life Technologies) supplemented with 10% fetal bovine serum (FBS, Lonza), 2 mM L-glutamine and 100 U/ml penicillin-streptomycin (Lonza). The cell lines have been cultured at 37° C. in 5% CO2 and have been regularly tested for Mycoplasma contamination. The viability has been measured by means of alamar Blue assay (Thermo Fisher) under treatment for 24 hours with nanomolar to micromolar doses of aza-tanshinones. The mean viability and the standard deviation (SD) per each test compound have been obtained from the dose-response curves for triple doses (0.01, 0.1, 1. 10. 50 μM) in comparison with the control vehicle (DMSO).
(§3) The group of cell lines used in Paragraph 8.2, with the addition of the tumor cell lines of the metastatic breast cancer SK-BR-3 and of the colon adenocarcinoma SW-480, has been used to measure the IC50/cytotoxicity potency of compound 26. The viability assays have been performed as shown in Paragraph 8.2.

MCF7 = test: alamar Blue viability assay; format: cell-based; conditions: for Viability: vs DMSO
Protocol: as §2, §3

SK-BR-3 = test: alamar Blue viability assay; format: cell-based
Protocol: as §2, §3

PANC-1 = test: alamar Blue viability assay; format: cell-based; conditions: for Viability: vs DMSO
Protocol: as §2, §3

MDA-MB-231 [2] = test: alamar Blue viability assay; format: cell-based; conditions: for Viability: vs DMSO
Protocol: as §2, §3

THP-1 = test: alamar Blue viability assay; format: cell-based, human; conditions: for Viability: vs DMSO
Protocol: as §2, §3

[3] = system: TNF mRNA in MCF-7 breast cancer cells; test: Downregulation of TNF mRNA with LPS co-treatment; format: cell-based
Protocol: MCF-7 breast cancer cells (5*10^4/well) have been seeded in 6-well plates and cultured under standard conditions for 24 hours. The MCF-7 cells have then been treated for 3 hours in a complete medium with compound 26, or with DMSO/control vehicle. Three hours of treatment with DHTS in the MCF-7 cells have been enough to observe HuR-dependent post-transcriptional effects (44), whereby the same experimental conditions have been used here, including the co-treatment with lipopolysaccharide (LPS) as positive control to induce the TNF expression.

[4] = system: THP-1 human leukemia monocytes; test: Cytokine mRNA levels by Q-RT-PCR; format: cell-based; conditions: THP-1, LPS 26 vs LPS DMSO = 1
Protocol: THP-1 human leukemia monocytes (5*10^4/well) have been seeded in a 6-well plate and cultured under standard conditions for 24 hours as already described. The mRNA total levels for a group of cytokines have been quantified by means of standard quantitative real-time PCR (Q-RT-PCR). Two-way ANOVA has been applied for a statistical significance of the effects of compound 26 on the decrease of the mRNA of the cytokines.

HuR-mRNA interaction = target: T1, HuR-mRNA interaction (Homo sapiens, UniProt Q15717); test: AlphaScreen assay, inhibition of HuR-mRNA interaction; format: binding; conditions: for IC50: rHuR and biotinylated RNA probe
T1 construct: made in house; host or cells: HEK293T cells
T1 sequence (Q15717 whole entry): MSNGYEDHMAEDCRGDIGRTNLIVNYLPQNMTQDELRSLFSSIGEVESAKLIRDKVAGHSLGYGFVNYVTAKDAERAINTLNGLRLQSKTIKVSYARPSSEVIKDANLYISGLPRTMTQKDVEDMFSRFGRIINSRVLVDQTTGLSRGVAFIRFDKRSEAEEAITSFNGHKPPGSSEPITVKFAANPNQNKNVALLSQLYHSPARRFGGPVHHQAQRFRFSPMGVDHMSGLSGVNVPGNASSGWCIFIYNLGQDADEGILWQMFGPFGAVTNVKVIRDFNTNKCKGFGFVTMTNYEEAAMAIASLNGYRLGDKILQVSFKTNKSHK
Protocol: The full encoding sequence for human HuR/ELAVL1 gene (NM001419) has been amplified from cDNA obtained by retro-transcription from RNA of MCF7 cells and inserted into the pCMV6-AC-Myc-His PrecisionShuttle vector (Origene Technologies). The pCMV6-HuR recombinant vector has been transfected into HEK293T cells by using the transfection reagent Lipofectamine® 2000 (Life Technologies) according to the manufacturer protocol. HEK293T cells have been cultured in a complete medium (10% DMEM, 10% FBS, 2 mM Glutamine, 100 units/ml penicillin+100 μg/ml streptomycin) in humidified 5% CO2 atmosphere at 37° C.
Two types of assay have been performed, in order to define the profile of the aza-tanshinones and their inhibitory activity. REMSA (RNA-EMSA, RNA electrophoresis mobility shift assay) in 5% polyacrylamide gel requires the use of a RNA fluorescent probe (5′-Cy3-[…]), while the AlphaScreen assay required a RNA 5′-biotinylated probe (BiTNF, 5′-[…]). […] IC50 values have been obtained by means of non-linear regression of the fit of the log(dose) response by using the same software.

[5] = alamar Blue viability assay; format: cell-based; conditions: human, 24 hours, vs DMSO
Protocol: as §2, §3

[6] = alamar Blue viability assay; format: cell-based, human; conditions: human, THP-1 cells (monocytic leukemia), 24 hours, vs DMSO; for viability at 24 h, 10 µM: THP1, 10 μM; for viability at 24 h, 50 µM: THP1, 50 μM
Protocol: as §2, §3

[7] = MCF7 cells (breast cancer), MCF7, 10 μM
[8] = MCF7 cells (breast cancer), MCF7, 50 μM
[9] = MDA-MB-231 cells (metastatic breast cancer), MDA-MB-231, 10 μM
[10] = MDA-MB-231 cells (metastatic breast cancer), MDA-MB-231, 50 μM
[11] = PANC-1 cells (pancreatic carcinoma), PANC-1, 10 μM
[12] = PANC-1 cells (pancreatic carcinoma), PANC-1, 50 μM

SMILES: O=C1C=Cc2c(c(-c3ccccc3)cn2S(=O)(=O)c2ccccc2)C1=O [Compound 26, 1-Phenylsulfonyl-3-phenyl-4,5-dioxo indole]
Minimum of trans-well migration (MDA-MB-231 cells; 26 1 μM (LPS control 0.7176)): 0.1057 | Maximum of trans-well migration (MDA-MB-231 cells; 26 1 μM (LPS control 3.053)): 1.246 | Minimum of trans-well migration (MDA-MB-231 cells; 26 5 μM (LPS control 0.7176)): 0.1416 | Maximum of trans-well migration (MDA-MB-231 cells; 26 5 μM (LPS control 3.053)): 0.3311 | empty area of the scratched wells (MDA-MB-231 [1]; MDA-MB-231, 26 1 μM): 45 ± 4 | empty area of the scratched wells (MDA-MB-231 [1]; MDA-MB-231, 26 5 μM): 45 ± 1 | empty area of the scratched wells (PANC1; PANC1, 26 1 μM): 38 ± 7 | empty area of the scratched wells (PANC1; PANC1, 26 5 μM): 32 ± 0.01 | IC50 (SW-480; Homo sapiens, SW480, cytotoxicity, 24 hours): 4810 ± 230 nM | % cell death (SW-480; SW480): 62% | IC50 (MCF7; Homo sapiens, MCF7, cytotoxicity, 24 hours): 3850 ± 80 nM | % cell death (MCF7; MCF7): 71% | IC50 (SK-BR-3; Homo sapiens, SK-BR-3, cytotoxicity, 24 hours): 5180 ± 110 nM | % cell death (SK-BR-3; SK-BR-3): 57% | IC50 (PANC-1; Homo sapiens, PANC-1, cytotoxicity, 24 hours): 6270 ± 70 nM | % cell death (PANC-1; PANC-1): 49% | IC50 (MDA-MB-231 [2]; Homo sapiens, MDA-MB-231, cytotoxicity, 24 hours): 1570 ± 40 nM | % cell death (MDA-MB-231 [2]; MDA-MB-231): 66% | IC50 (THP-1; Homo sapiens, THP-1, cytotoxicity, 24 hours): 9770 ± 150 nM | % cell death (THP-1; THP-1): 52% | TNF mRNA level ([3]; MCF-7, LPS+26, 3 hours (LPS+DMSO 1.62)): 1.00 | TNF RNA amount ([3]; MCF-7, LPS+26 relative to LPS+DMSO, 3 hours): 62% | reduction of the TNF mRNA with respect to the control ([3]; MCF-7, after 3 hours): 35% | CCL2 mRNA level [4]: 0.88 | CCL5 mRNA level [4]: 0.51 | CCL8 mRNA level [4]: 0.00 | IFNA1 mRNA level [4]: 0.46 | IFNB1 mRNA level [4]: 0.33 | IFNG mRNA level [4]: 0.38 | IL1A mRNA level [4]: 1.04 | IL1B mRNA level [4]: 0.22 | IL2 mRNA level [4]: 1.18 | IL4 mRNA level [4]: 0.82 | IL7 mRNA level [4]: 0.56 | IL8 mRNA level [4]: 0.15 | IL10 mRNA level [4]: 0.16 | IL13 mRNA level [4]: 0.53 | IL15 mRNA level [4]: 0.91 | IL17A mRNA level [4]: 0.30 | IL18 mRNA level [4]: 0.36 | IL19 mRNA level [4]: 0.01 | TNF mRNA level [4]: 0.38

SMILES: Cc1cccc2c3c(ccc12)C1=C(C(=O)C3=O)[C@@H](C)CO1 [DHTS, Dihydrotanshinone, reference compound]
Ki (HuR-mRNA interaction; 1-site competition model, RNA 50 nM, Kd 2.5 nM, read-out: Complete Ki): 3.74 ± 1.63 nM | IC50 (HuR-mRNA interaction): 149 ± 34 nM

SMILES: O=C1C(=O)c2c(-c3ccccc3)cn(S(=O)(=O)c3ccccc3)c2C2=C1C1CCC2CC1 [Compound 32, 3-Phenyl-1-phenylsulfonyl-4,5-dioxo-6,9-ethanbenzo[g]indole]
Viability (MCF7; MCF7, 10 μM, 24 hours): 1.09 | Viability (MCF7; MCF7, 50 μM, 24 hours): 0.14 | Viability (PANC-1; PANC-1, 10 μM, 24 hours): 0.85 | Viability (PANC-1; PANC-1, 50 μM, 24 hours): 0.15 | Viability (MDA-MB-231 [2]; MDA-MB-231, 10 μM, 24 hours): 1.00 | Viability (MDA-MB-231 [2]; MDA-MB-231, 50 μM, 24 hours): 0.28 | IC50 (HuR-mRNA interaction): 121 ± 55 nM | Viability (THP-1; THP1, 10 μM, 24 hours): 0.55 | Viability (THP-1; THP1, 50 μM, 24 hours): 0.00 | cell death (THP-1; THP-1 cells, 10 μM): greater than 20%

SMILES: O=C1C=Cc2c(c(-c3ccccc3)cn2S(=O)(=O)c2ccc([N+](=O)[O-])cc2)C1=O [Compound 23, 1-(p-Nitrophenylsulfonyl)-3-phenyl-4,5-dioxo indole]
viability at 24 h, 10 µM [5, 7]: 100% | viability at 24 h, 50 µM [5, 8]: 66% | viability at 24 h, 10 µM [5, 9]: 104% | viability at 24 h, 50 µM [5, 10]: 80% | viability at 24 h, 10 µM [5, 11]: 92% | viability at 24 h, 50 µM [5, 12]: 36% | IC50 (HuR-mRNA interaction): 241 ± 42 nM | viability at 24 h, 10 µM [6]: 98% | viability at 24 h, 50 µM [6]: 31%

SMILES: O=C1C=Cc2c(c(-c3ccccc3)cn2S(=O)(=O)c2ccc(F)cc2)C1=O [Compound 25, 1-(p-Fluorophenylsulfonyl)-3-phenyl-4,5-dioxo indole]
viability at 24 h, 10 µM [5, 7]: 100% | viability at 24 h, 50 µM [5, 8]: 63% | viability at 24 h, 10 µM [5, 9]: 103% | viability at 24 h, 50 µM [5, 10]: 50% | viability at 24 h, 10 µM [5, 11]: 100% | viability at 24 h, 50 µM [5, 12]: 29% | viability at 24 h, 10 µM [6]: 100% | viability at 24 h, 50 µM [6]: 35%

The next lines start with results.

IC50 (HuR-mRNA interaction): 287 ± 30 nM
SMILES: COc1ccc(-c2cn(S(=O)(=O)c3ccccc3)c3c2C(=O)C(=O)C=C3)cc1 [Compound 28, 1-phenylsulfonyl-3-(p-methoxyphenyl)-4,5-dioxo indole]
viability at 24 h, 10 µM [5, 7]: 91% | viability at 24 h, 50 µM [5, 8]: 75% | viability at 24 h, 10 µM [5, 9]: 106% | viability at 24 h, 50 µM [5, 10]: 57% | viability at 24 h, 10 µM [5, 11]: 90% | viability at 24 h, 50 µM [5, 12]: 32% | viability at 24 h, 10 µM [6]: 105% | viability at 24 h, 50 µM [6]: 46%

IC50 (HuR-mRNA interaction): 342 ± 64 nM
SMILES: O=C1C=Cc2c(c(-c3ccccc3)cn2S(=O)(=O)c2cccc([N+](=O)[O-])c2)C1=O [Compound 24, 1-(m-Nitrophenylsulfonyl)-3-phenyl-4,5-dioxoindole]
viability at 24 h, 10 µM [5, 7]: 100% | viability at 24 h, 50 µM [5, 8]: 54% | viability at 24 h, 10 µM [5, 9]: 94% | viability at 24 h, 50 µM [5, 10]: 36% | viability at 24 h, 10 µM [5, 11]: 91% | viability at 24 h, 50 µM [5, 12]: 20% | viability at 24 h, 10 µM [6]: 100% | viability at 24 h, 50 µM [6]: 27%

IC50 (HuR-mRNA interaction): 251 ± 31 nM
SMILES: O=C1C=Cc2c(c(-c3ccccc3)cn2S(=O)(=O)c2cccc(F)c2)C1=O [Compound 27, 1-(m-Fluorophenylsulfonyl)-3-phenyl-4,5-dioxo indole]
viability at 24 h, 10 µM [5, 7]: 108% | viability at 24 h, 50 µM [5, 8]: 79% | viability at 24 h, 10 µM [5, 9]: 103% | viability at 24 h, 50 µM [5, 10]: 51% | viability at 24 h, 10 µM [5, 11]: 102% | viability at 24 h, 50 µM [5, 12]: 20% | viability at 24 h, 10 µM [6]: 83% | viability at 24 h, 50 µM [6]: 32%

IC50 (HuR-mRNA interaction): 352 ± 57 nM
SMILES: COc1cccc(-c2cn(S(=O)(=O)c3ccccc3)c3c2C(=O)C(=O)C=C3)c1 [Compound 29, 1-Phenylsulfonyl-3-(m-methoxyphenyl)-4,5-dioxoindole]
